Reference: US3965109A, “Certain aryl amino pyridines” (priority 1971, dated 1976)

Legend:
[1] = system: Puccinia recondita (wheat); assay: Fungicidal test against foliar disease A (foliage spray plus soil drench); format: in vivo; conditions: 100 ppm spray and drench; 10 days
[2] = system: Plasmopara viticola (vine); assay: Fungicidal test against foliar disease C (foliage spray plus soil drench); format: in vivo; conditions: 100 ppm spray and drench; 10 days
[3] = system: Uncinula necator (vine); assay: Fungicidal test against foliar disease D (foliage spray plus soil drench); format: in vivo; conditions: 100 ppm spray and drench; 10 days
[4] = system: Tetranychus telarius (red spider mites, adults); assay: Pest toxicity test; format: in vivo; conditions: 0.1% by weight; French bean; 3 days
[5] = system: Tetranychus telarius (red spider mites, eggs); assay: Pest toxicity test; format: in vivo; conditions: 0.1% by weight; French bean; 3 days
[6] = system: Aphis fabae; assay: Pest toxicity test; format: in vivo; conditions: 0.1% by weight; broad bean; 2 days
[7] = system: Megoura viceae; assay: Pest toxicity test; format: in vivo; conditions: 0.1% by weight; broad bean; 2 days
[8] = system: Aedes aegypti (mosquito larvae); assay: Pest toxicity test; format: in vivo; conditions: 0.01% by weight; water; 1 day
[9] = system: Aedes aegypti (mosquito adults); assay: Pest toxicity test; format: in vivo; conditions: 0.01% by weight; plywood; 1 day
[10] = system: Pieris brassicae (cabbage white caterpillars); assay: Pest toxicity test; format: in vivo; conditions: 0.1% by weight, 2 days
[11] = system: Plutella maculipennis (diamond back moth larvae); assay: Pest toxicity test; format: in vivo
[12] = system: Phaedon cochleariae (mustard beetles); assay: Pest toxicity test; format: in vivo
[13] = system: Agriolimax reticulatus (slugs); assay: Molluscicidal activity test; format: in vivo, Agriolimax reticulatus (Mull); conditions: pellet with 4% by weight; 6 days; 10°C
Protocol: A weighed sample of the compound under test was dissolved in 0.5 c.c. of an ethanol and acetone mixture 50:50 v/v). The solution was diluted with 0.5 cc water and poured onto a calf feeding pellet in a glass Petri dish. The pellet was then air dried for 24 hours. The weight of compound used was chosen so that the dried pellet contained 4% by weight of the active ingredient. Two replicates each consisting of a plastic Petri dish containing a pellet, 2 slugs, and a moistened filter paper to maintain a high relative humidity were used in each test. The dishes were left in a cold room (10°C.) After 6 days the kill was assessed.
The slugs used were Agriolimax reticulatus (Mull), and they had been starved for 24 hours before the commencement of the tests.

[14] = system: Lettuce; assay: Herbicidal test, pre- and post-emergence; format: in vivo; conditions: 10 kg/ha; scale 0 to 3 (complete kill)
[15] = system: Tomato; assay: Herbicidal test, pre- and post-emergence; format: in vivo; conditions: 10 kg/ha; scale 0 to 3 (complete kill)
[16] = system: Wheat; assay: Herbicidal test, pre- and post-emergence; format: in vivo; conditions: 10 kg/ha; scale 0 to 3 (complete kill)
[17] = system: Maize; assay: Herbicidal test, pre- and post-emergence; format: in vivo; conditions: 10 kg/ha; scale 0 to 3 (complete kill)
[18] = system: Sugar beet; assay: Further herbicidal test, various rates; format: in vivo; conditions: scale 0 to 5 (complete kill)
[19] = system: Kale; assay: Further herbicidal test, various rates; format: in vivo; conditions: scale 0 to 5 (complete kill)
[20] = system: Carrot; assay: Further herbicidal test, various rates; format: in vivo; conditions: scale 0 to 5 (complete kill)
[21] = system: Pea; assay: Further herbicidal test, various rates; format: in vivo; conditions: scale 0 to 5 (complete kill)
[22] = system: Onion; assay: Further herbicidal test, various rates; format: in vivo; conditions: scale 0 to 5 (complete kill)
[23] = system: Barley; assay: Further herbicidal test, various rates; format: in vivo; conditions: scale 0 to 5 (complete kill)
[24] = system: Rice; assay: Further herbicidal test, various rates; format: in vivo; conditions: scale 0 to 5 (complete kill)
[25] = system: Oat; assay: Further herbicidal test, various rates; format: in vivo; conditions: scale 0 to 5 (complete kill)
[26] = system: Phytophthora infestans (tomato); format: in vivo; conditions: 100 ppm spray and drench; 3 days
[27] = system: Piricularia oryzae (rice); format: in vivo; conditions: 100 ppm spray and drench; 7 days
[28] = system: Musca domestica (houseflies); assay: Pest toxicity test, contact test; format: in vivo; conditions: 0.1% by weight; milk/sugar; 2 days; flies sprayed directly
[29] = 0.1% by weight, mustard/paper, 2 days

O=[N+]([O-])c1ccc(Nc2c(F)c(F)nc(F)c2Cl)c(C(F)(F)F)c1 [Compound 32, 3-Chloro-4(4-nitro-2-trifluoromethylanilino)-2,5,6-trifluoropyridine]
Amount of disease grading, disease A (Table 4) [1]: 3 (0 to 5)
Amount of disease grading, disease C (Table 4) [2]: 3 (0 to 5)
Amount of disease grading, disease D (Table 4) [3]: 3 (0 to 5)
Mortality grading (kill) [4]: 3 (3 represents over 90% kill)
Mortality grading (kill) [5]: 3 (3 represents over 90% kill)
Mortality grading (kill) [6]: 3 (3 represents over 90% kill)
Mortality grading (kill) [7]: 0 (O represents less than 30% kill)
Mortality grading (kill) [8]: 3 (3 represents over 90% kill)
Mortality grading (kill) [9]: 2 (2 represents 60 - 90% kill)
Mortality grading (kill) [10]: 3 (3 represents over 90% kill)
Mortality grading (kill) [11, 29]: 2 (2 represents 60 - 90% kill)
Mortality grading (kill) [12, 29]: 0 (O represents less than 30% kill)
% Kill of slugs [13]: 100%
Damage to plants, post-emergence [14]: 3
Damage to plants, pre-emergence [14]: 3
Damage to plants, post-emergence [15]: 3
Damage to plants, pre-emergence [15]: 3
Damage to plants, post-emergence [16]: 0
Damage to plants, pre-emergence [16]: 3
Damage to plants, post-emergence [17]: 0
Damage to plants, pre-emergence [17]: 1
Damage to plants, post-emergence ([18]; 1 kg/hectare): 5
Damage to plants, pre-emergence ([18]; 1 kg/hectare): 4
Damage to plants, post-emergence ([18]; 5 kg/hectare): 5
Damage to plants, pre-emergence ([18]; 5 kg/hectare): 5
Damage to plants, post-emergence ([19]; 1 kg/hectare): 5
Damage to plants, pre-emergence ([19]; 1 kg/hectare): 4
Damage to plants, post-emergence ([19]; 5 kg/hectare): 4
Damage to plants, pre-emergence ([19]; 5 kg/hectare): 5
Damage to plants, post-emergence ([20]; 1 kg/hectare): 2
Damage to plants, pre-emergence ([20]; 1 kg/hectare): 3
Damage to plants, post-emergence ([20]; 5 kg/hectare): 4
Damage to plants, pre-emergence ([20]; 5 kg/hectare): 5
Damage to plants, post-emergence ([21]; 1 kg/hectare): 3
Damage to plants, pre-emergence ([21]; 1 kg/hectare): 3
Damage to plants, post-emergence ([21]; 5 kg/hectare): 2
Damage to plants, pre-emergence ([21]; 5 kg/hectare): 5
Damage to plants, post-emergence ([22]; 1 kg/hectare): 1
Damage to plants, post-emergence ([22]; 5 kg/hectare): 0
Damage to plants, pre-emergence ([22]; 5 kg/hectare): 5
Damage to plants, post-emergence ([23]; 1 kg/hectare): 1
Damage to plants, pre-emergence ([23]; 1 kg/hectare): 4
Damage to plants, post-emergence ([23]; 5 kg/hectare): 1
Damage to plants, pre-emergence ([23]; 5 kg/hectare): 4
Damage to plants, post-emergence ([24]; 1 kg/hectare): 0
Damage to plants, pre-emergence ([24]; 1 kg/hectare): 4
Damage to plants, post-emergence ([24]; 5 kg/hectare): 0
Damage to plants, pre-emergence ([24]; 5 kg/hectare): 5
Damage to plants, post-emergence ([25]; 1 kg/hectare): 1
Damage to plants, pre-emergence ([25]; 1 kg/hectare): 3
Damage to plants, post-emergence ([25]; 5 kg/hectare): 0
Damage to plants, pre-emergence ([25]; 5 kg/hectare): 4

N#Cc1cc([N+](=O)[O-])ccc1Nc1c(Cl)c(F)nc(F)c1Cl [Compound 26, 4(2-Cyano-4-nitroanilino)-3,5-dichloro-2,6-difluoropyridine]
Amount of disease grading, disease B (Table 4) [26]: 3 (0 to 5)
Amount of disease grading, disease C (Table 4) [2]: 3 (0 to 5)
Amount of disease grading, disease E (Table 4) [27]: 0 (61 to 100)
Damage to plants, post-emergence [14]: 3
Damage to plants, pre-emergence [14]: 3
Damage to plants, post-emergence [15]: 0
Damage to plants, pre-emergence [15]: 3
Damage to plants, pre-emergence [16]: 1
Damage to plants, post-emergence [17]: 0
Damage to plants, pre-emergence [17]: 0

Fc1nc(F)c(Cl)c(Nc2c(Cl)c(F)c(Cl)c(F)c2Cl)c1Cl [Compound 43, 3,5-Dichloro-2,6-difluoro-4(3,5-difluoro-2,4,6-trichloroanilino) pyridine]
Amount of disease grading, disease D (Table 4) [3]: 3 (0 to 5)
Mortality grading (kill) [4]: 3 (3 represents over 90% kill)
Mortality grading (kill) [5]: 3 (3 represents over 90% kill)
Mortality grading (kill) [6]: 3 (3 represents over 90% kill)
Mortality grading (kill) [7]: 3 (3 represents over 90% kill)
Mortality grading (kill) [8]: 3 (3 represents over 90% kill)
Mortality grading (kill) [9]: 0 (O represents less than 30% kill)
Mortality grading (kill), contact test [28]: 3 (3 represents over 90% kill)
Mortality grading (kill) [10]: 3 (3 represents over 90% kill)
Mortality grading (kill) ([11]; in vivo): 2 (key: O represents less than 30% kill; 1 represents 30 - 49% kill; 2 represents 60 - 90% kill; 3 represents over 90% kill; C indicates a chemosterilant effect.; A indicates an antifeeding effect.)
Mortality grading (kill) ([12]; in vivo): 0 (key: O represents less than 30% kill; 1 represents 30 - 49% kill; 2 represents 60 - 90% kill; 3 represents over 90% kill; C indicates a chemosterilant effect.; A indicates an antifeeding effect.)
% Kill of slugs [13]: 100%
Damage to plants, post-emergence [14]: 3
Damage to plants, pre-emergence [14]: 3
Damage to plants, post-emergence [15]: 3
Damage to plants, pre-emergence [15]: 1
Damage to plants, post-emergence [16]: 0
Damage to plants, pre-emergence [16]: 1
Damage to plants, post-emergence [17]: 2
Damage to plants, pre-emergence [17]: 0
Damage to plants, post-emergence ([18]; 5 kg/hectare): 5
Damage to plants, pre-emergence ([18]; 5 kg/hectare): 0
Damage to plants, post-emergence ([19]; 5 kg/hectare): 5
Damage to plants, pre-emergence ([19]; 5 kg/hectare): 1
Damage to plants, post-emergence ([20]; 5 kg/hectare): 5
Damage to plants, pre-emergence ([20]; 5 kg/hectare): 0
Damage to plants, post-emergence ([21]; 5 kg/hectare): 5
Damage to plants, pre-emergence ([21]; 5 kg/hectare): 0
Damage to plants, pre-emergence ([22]; 5 kg/hectare): 0
Damage to plants, post-emergence ([23]; 5 kg/hectare): 3
Damage to plants, pre-emergence ([23]; 5 kg/hectare): 1
Damage to plants, post-emergence ([24]; 5 kg/hectare): 1
Damage to plants, pre-emergence ([24]; 5 kg/hectare): 0
Damage to plants, post-emergence ([25]; 5 kg/hectare): 4
Damage to plants, pre-emergence ([25]; 5 kg/hectare): 0

Fc1nc(F)c(Cl)c(Nc2c(Cl)c(Cl)c(Cl)c(Cl)c2Cl)c1Cl [Compound 9, 3,5-Dichloro-2,6-difluoro-4(pentachloroanilino)pyridine]
Amount of disease grading, disease A [1]: 3 (0 to 5)
Amount of disease grading, disease B [26]: 0 (61 to 100)
Amount of disease grading, disease C [2]: 0 (61 to 100)
Amount of disease grading, disease D [3]: 3 (0 to 5)
Amount of disease grading, disease E [27]: 3 (0 to 5)
Mortality grading (kill) [4]: 3 (3 represents over 90% kill)
Mortality grading (kill) [6]: 0 (O represents less than 30% kill)
Mortality grading (kill) [7]: 0 (O represents less than 30% kill)
Mortality grading (kill) [8]: 3 (3 represents over 90% kill)
Mortality grading (kill) [9]: 0 (O represents less than 30% kill)
Mortality grading (kill), contact test [28]: 3 (3 represents over 90% kill)
Mortality grading (kill) [10]: 0 (O represents less than 30% kill)
Mortality grading (kill) ([11]; in vivo): 3 (key: O represents less than 30% kill; 1 represents 30 - 49% kill; 2 represents 60 - 90% kill; 3 represents over 90% kill; C indicates a chemosterilant effect.; A indicates an antifeeding effect.)
Mortality grading (kill) ([12]; in vivo): 1 (key: O represents less than 30% kill; 1 represents 30 - 49% kill; 2 represents 60 - 90% kill; 3 represents over 90% kill; C indicates a chemosterilant effect.; A indicates an antifeeding effect.)
